Results published in PMC13266999, “Designing Antibiotics with Inherent Resistance to Efflux as a Strategy to Revive Discovery against Multidrug-Resistant Pathogens” (Journal of Medicinal Chemistry, 2026).
“And” between values parts separate entries of the source, which are not always exact repeats. Equal entries are not always repeated.

Columns and labels:
5-HT transporter (h) = molecular target: T1, 5-HT transporter (h) (Homo sapiens, UniProt P31645); test: SafetyScreen44; details: antagonist radioligand, specific binding, 1.0E-05 M
T1 construct: purchased Eurofins (SafetyScreen44)
Protocol: (§1) Off-target pharmacology was evaluated using the Eurofins SafetyScreen44 in vitro panel. […] Binding assays were performed using radioligand displacement, and enzyme or uptake assays measured inhibition of control activity using validated detection methods (scintillation counting, fluorimetry or photometry). Responses were expressed as percent inhibition of control binding or activity. Based on Eurofins interpretation guidelines, effects ≥50% were considered significant, effects between 25% and 50% weak to moderate, and effects <25% were not considered biologically relevant.

5-HT1A (h) = molecular target: T2, 5-HT1A (h) (Homo sapiens, UniProt P08908); test: SafetyScreen44; details: agonist radioligand, specific binding, 1.0E-05 M
T2 construct: purchased Eurofins (SafetyScreen44)
Protocol: as §1

5-HT1B = molecular target: T3, 5-HT1B (Rattus norvegicus, UniProt P28564); test: SafetyScreen44; details: antagonist radioligand, specific binding, 1.0E-05 M
T3 construct: purchased Eurofins (SafetyScreen44)
Protocol: as §1

5-HT2B (h) = molecular target: T4, 5-HT2B (h) (Homo sapiens, UniProt P41595); test: SafetyScreen44; details: agonist radioligand, specific binding, 1.0E-05 M
T4 construct: purchased Eurofins (SafetyScreen44)
Protocol: as §1

5-HT3 (h) = molecular target: T5, 5-HT3 (h) (Homo sapiens, UniProt P46098); test: SafetyScreen44; details: antagonist radioligand, specific binding, 1.0E-05 M
T5 construct: purchased Eurofins (SafetyScreen44)
Protocol: as §1

A2A (h) = molecular target: T6, A2A (h) (Homo sapiens, UniProt P29274); test: SafetyScreen44; details: agonist radioligand, specific binding, 1.0E-05 M
T6 construct: purchased Eurofins (SafetyScreen44)
Protocol: as §1

BZD (central) = test: SafetyScreen44; details: agonist radioligand, specific binding, 1.0E-05 M
Protocol: as §1

CB1 (h) = molecular target: T7, CB1 (h) (Homo sapiens, UniProt P21554); test: SafetyScreen44; details: agonist radioligand, specific binding, 1.0E-05 M
T7 construct: purchased Eurofins (SafetyScreen44 panel) assay 36
Protocol: as §1

CCK1 (CCKA) (h) = molecular target: T8, CCK1 (CCKA) (h) (Homo sapiens, UniProt P32238); test: SafetyScreen44; details: agonist radioligand, specific binding, 1.0E-05 M
T8 construct: purchased Eurofins (SafetyScreen44)
Protocol: as §1

[1] = tested on: Ca2+ channel (L, dihydropyridine site); test: SafetyScreen44; details: antagonist radioligand, specific binding, 1.0E-05 M
Protocol: as §1

D1 (h) = molecular target: T9, D1 (h) (Homo sapiens, UniProt P21728); test: SafetyScreen44; details: antagonist radioligand, specific binding, 1.0E-05 M
T9 construct: purchased Eurofins (SafetyScreen44)
Protocol: as §1

D2S (h) = molecular target: T10, D2S (h) (Homo sapiens, UniProt P14416); test: SafetyScreen44; details: agonist radioligand, specific binding, 1.0E-05 M
T10 construct: purchased Eurofins (SafetyScreen44)
Protocol: as §1

ETA (h) = molecular target: T11, ETA (h) (Homo sapiens, UniProt P25101); test: SafetyScreen44; details: agonist radioligand, specific binding, 1.0E-05 M
T11 construct: purchased Eurofins (SafetyScreen44)
Protocol: as §1

GR (h) = molecular target: T12, GR (h) (Homo sapiens, UniProt P04150); test: SafetyScreen44; details: agonist radioligand, specific binding, 1.0E-05 M
T12 construct: purchased Eurofins (SafetyScreen44)
Protocol: as §1

H1 (h) = molecular target: T13, H1 (h) (Homo sapiens, UniProt P35367); test: SafetyScreen44; details: antagonist radioligand, specific binding, 1.0E-05 M
T13 construct: purchased Eurofins (SafetyScreen44)
Protocol: as §1

H2 (h) = molecular target: T14, H2 (h) (Homo sapiens, UniProt P25021); test: SafetyScreen44; details: antagonist radioligand, specific binding, 1.0E-05 M
T14 construct: purchased Eurofins (SafetyScreen44)
Protocol: as §1

KV channel = test: SafetyScreen44; details: antagonist radioligand, specific binding, 1.0E-05 M
Protocol: as §1

M1 (h) = molecular target: T15, M1 (h) (Homo sapiens, UniProt P11229); test: SafetyScreen44; details: antagonist radioligand, specific binding, 1.0E-05 M
T15 construct: purchased Eurofins (SafetyScreen44)
Protocol: as §1

M2 (h) = molecular target: T16, M2 (h) (Homo sapiens, UniProt P08172); test: SafetyScreen44; details: antagonist radioligand, specific binding, 1.0E-05 M
T16 construct: purchased Eurofins (SafetyScreen44)
Protocol: as §1

M3 (h) = molecular target: T17, M3 (h) (Homo sapiens, UniProt P20309); test: SafetyScreen44; details: antagonist radioligand, specific binding, 1.0E-05 M
T17 construct: purchased Eurofins (SafetyScreen44)
Protocol: as §1

MAO-A = molecular target: T18, MAO-A (Rattus norvegicus, UniProt P21396); test: SafetyScreen44; details: antagonist radioligand, specific binding, 1.0E-05 M
T18 construct: purchased Eurofins (SafetyScreen44)
Protocol: as §1

[2] = molecular target: T19, N neuronal alpha 4beta 2 (h) (Homo sapiens, UniProt P17787+P43681); test: SafetyScreen44; details: agonist radioligand, specific binding, 1.0E-05 M
T19 construct: purchased Eurofins (SafetyScreen44)
Protocol: as §1

NMDA = test: SafetyScreen44; details: antagonist radioligand, specific binding, 1.0E-05 M
Protocol: as §1

Na+ channel (site 2) = test: SafetyScreen44; details: antagonist radioligand, specific binding, 1.0E-05 M
Protocol: as §1

[3] = molecular target: T20, Potassium Channel hERG (human) (Homo sapiens, UniProt Q12809); test: SafetyScreen44; details: [3H] Dofetilide, specific binding, 1.0E-05 M
T20 construct: purchased Eurofins (SafetyScreen44)
Protocol: as §1

V1a (h) = molecular target: T21, V1a (h) (Homo sapiens, UniProt P37288); test: SafetyScreen44; details: agonist radioligand, specific binding, 1.0E-05 M
T21 construct: purchased Eurofins (SafetyScreen44)
Protocol: as §1

alpha 1A (h) = molecular target: T22, alpha 1A (h) (Homo sapiens, UniProt P35348); test: SafetyScreen44; details: antagonist radioligand, specific binding, 1.0E-05 M
T22 construct: purchased Eurofins (SafetyScreen44)
Protocol: as §1

alpha 2A (h) = molecular target: T23, alpha 2A (h) (Homo sapiens, UniProt P08913); test: SafetyScreen44; details: antagonist radioligand, specific binding, 1.0E-05 M
T23 construct: purchased Eurofins (SafetyScreen44)
Protocol: as §1

beta 1 (h) = molecular target: T24, beta 1 (h) (Homo sapiens, UniProt P08588); test: SafetyScreen44; details: agonist radioligand, specific binding, 1.0E-05 M
T24 construct: purchased Eurofins (SafetyScreen44)
Protocol: as §1

beta 2 (h) = molecular target: T25, beta 2 (h) (Homo sapiens, UniProt P07550); test: SafetyScreen44; details: antagonist radioligand, specific binding, 1.0E-05 M
T25 construct: purchased Eurofins (SafetyScreen44)
Protocol: as §1

mu (MOP) (h) = molecular target: T26, mu (MOP) (h) (Homo sapiens, UniProt P35372); test: SafetyScreen44; details: agonist radioligand, specific binding, 1.0E-05 M
T26 construct: purchased Eurofins (SafetyScreen44)
Protocol: as §1

[4] = molecular target: T27, norepinephrine transporter (h) (Homo sapiens, UniProt P23975); test: SafetyScreen44; details: antagonist radioligand, specific binding, 1.0E-05 M
T27 construct: purchased Eurofins (SafetyScreen44)
Protocol: as §1

COX1(h) = molecular target: T28, COX1(h) (Homo sapiens, UniProt P23219); test: SafetyScreen44; type: biochemical; details: enzymatic activity, 1.0E-05 M
T28 construct: purchased Eurofins (SafetyScreen44)
Protocol: as §1

Lck kinase (h) = molecular target: T29, Lck kinase (h) (Homo sapiens, UniProt P06239); test: SafetyScreen44; type: biochemical; details: enzymatic activity, 1.0E-05 M
T29 construct: purchased Eurofins (SafetyScreen44)
Protocol: as §1

PDE3A (h) = molecular target: T30, PDE3A (h) (Homo sapiens, UniProt Q14432); test: SafetyScreen44; type: biochemical; details: enzymatic activity, 1.0E-05 M
T30 construct: purchased Eurofins (SafetyScreen44)
Protocol: as §1

PDE4D2 (h) = molecular target: T31, PDE4D2 (h) (Homo sapiens, UniProt Q08499); test: SafetyScreen44; type: biochemical; details: enzymatic activity, 1.0E-05 M
T31 construct: purchased Eurofins (SafetyScreen44)
Protocol: as §1

acetylcholinesterase (h) = molecular target: T32, acetylcholinesterase (h) (Homo sapiens, UniProt P22303); test: SafetyScreen44; type: biochemical; details: enzymatic activity, 1.0E-05 M
T32 construct: purchased Eurofins (SafetyScreen44)
Protocol: as §1

[5] = tested on: NorA overexpressing strain NCTC 13616; test: Reserpine growth (efflux inhibition) assay; details: for AUC of growth curve: biological replicates 1-3
Protocol: Statistical analyses were performed with GraphPad Prism V9.5.0. […] Unpaired t tests were used when comparing two samples in the gyrase assays.

T32 sequence (P22303 32-614): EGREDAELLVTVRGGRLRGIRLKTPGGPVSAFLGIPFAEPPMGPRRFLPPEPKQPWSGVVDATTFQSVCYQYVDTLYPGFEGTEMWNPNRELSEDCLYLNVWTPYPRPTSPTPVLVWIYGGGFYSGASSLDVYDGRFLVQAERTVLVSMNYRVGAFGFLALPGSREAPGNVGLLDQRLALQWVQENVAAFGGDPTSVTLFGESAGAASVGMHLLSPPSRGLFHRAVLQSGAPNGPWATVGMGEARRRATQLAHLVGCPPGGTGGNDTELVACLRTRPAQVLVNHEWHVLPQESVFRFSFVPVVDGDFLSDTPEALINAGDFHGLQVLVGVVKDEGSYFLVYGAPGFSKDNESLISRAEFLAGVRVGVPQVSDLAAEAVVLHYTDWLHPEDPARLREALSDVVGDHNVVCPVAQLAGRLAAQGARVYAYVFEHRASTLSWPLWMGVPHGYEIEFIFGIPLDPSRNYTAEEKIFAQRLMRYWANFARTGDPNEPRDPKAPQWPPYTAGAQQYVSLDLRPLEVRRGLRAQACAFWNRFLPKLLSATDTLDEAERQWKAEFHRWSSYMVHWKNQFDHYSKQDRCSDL
T28 sequence (P23219 24-599): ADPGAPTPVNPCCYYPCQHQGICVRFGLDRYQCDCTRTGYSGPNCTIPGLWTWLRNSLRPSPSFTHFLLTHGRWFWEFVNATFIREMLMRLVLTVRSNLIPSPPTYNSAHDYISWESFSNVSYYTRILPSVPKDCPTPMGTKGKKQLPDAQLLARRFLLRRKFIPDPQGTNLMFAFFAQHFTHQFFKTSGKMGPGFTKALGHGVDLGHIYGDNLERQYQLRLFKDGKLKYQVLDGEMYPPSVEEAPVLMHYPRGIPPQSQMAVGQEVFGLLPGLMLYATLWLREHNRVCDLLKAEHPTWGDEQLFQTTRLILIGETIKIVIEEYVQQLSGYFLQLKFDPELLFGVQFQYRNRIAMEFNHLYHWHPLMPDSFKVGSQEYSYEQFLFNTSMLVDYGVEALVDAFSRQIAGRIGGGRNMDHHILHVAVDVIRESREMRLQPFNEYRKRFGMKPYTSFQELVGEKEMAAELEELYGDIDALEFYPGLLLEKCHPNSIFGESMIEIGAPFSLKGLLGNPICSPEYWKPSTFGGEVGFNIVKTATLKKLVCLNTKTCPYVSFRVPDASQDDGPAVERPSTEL
T6 sequence (P29274 whole entry): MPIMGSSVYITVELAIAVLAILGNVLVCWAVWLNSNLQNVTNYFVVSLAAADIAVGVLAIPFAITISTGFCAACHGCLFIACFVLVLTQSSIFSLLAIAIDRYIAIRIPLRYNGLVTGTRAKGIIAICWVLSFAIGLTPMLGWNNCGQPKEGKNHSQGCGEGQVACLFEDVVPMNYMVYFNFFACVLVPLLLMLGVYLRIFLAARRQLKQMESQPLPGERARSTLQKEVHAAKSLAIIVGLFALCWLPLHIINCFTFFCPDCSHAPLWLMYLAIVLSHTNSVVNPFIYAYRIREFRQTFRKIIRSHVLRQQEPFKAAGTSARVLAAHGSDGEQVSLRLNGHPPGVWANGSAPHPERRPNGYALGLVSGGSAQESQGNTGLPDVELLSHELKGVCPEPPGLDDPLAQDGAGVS
T23 sequence (P08913 whole entry): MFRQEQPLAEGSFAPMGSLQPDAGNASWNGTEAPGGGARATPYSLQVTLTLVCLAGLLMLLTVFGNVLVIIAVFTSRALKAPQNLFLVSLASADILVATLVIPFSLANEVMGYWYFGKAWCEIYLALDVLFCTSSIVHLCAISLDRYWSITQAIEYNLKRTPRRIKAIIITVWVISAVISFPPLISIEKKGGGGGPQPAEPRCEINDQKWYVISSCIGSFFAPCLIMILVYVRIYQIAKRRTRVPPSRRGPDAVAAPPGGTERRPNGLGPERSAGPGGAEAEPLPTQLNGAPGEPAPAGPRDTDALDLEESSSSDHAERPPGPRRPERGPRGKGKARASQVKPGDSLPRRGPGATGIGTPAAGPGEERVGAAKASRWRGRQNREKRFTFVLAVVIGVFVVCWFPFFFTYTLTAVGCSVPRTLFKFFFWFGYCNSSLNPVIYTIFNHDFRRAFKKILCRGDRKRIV
T11 sequence (P25101 21-427): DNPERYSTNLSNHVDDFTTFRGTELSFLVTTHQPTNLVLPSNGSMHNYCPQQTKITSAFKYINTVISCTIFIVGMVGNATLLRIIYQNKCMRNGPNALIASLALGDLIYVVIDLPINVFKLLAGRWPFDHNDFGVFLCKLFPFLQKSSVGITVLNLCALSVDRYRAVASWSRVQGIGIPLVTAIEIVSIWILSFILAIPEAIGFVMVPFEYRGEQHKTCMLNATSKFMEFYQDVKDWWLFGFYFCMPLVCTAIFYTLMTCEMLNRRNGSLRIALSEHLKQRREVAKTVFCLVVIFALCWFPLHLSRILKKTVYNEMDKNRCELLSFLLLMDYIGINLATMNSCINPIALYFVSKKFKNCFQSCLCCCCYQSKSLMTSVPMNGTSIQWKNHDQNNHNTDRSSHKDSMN
T25 sequence (P07550 whole entry): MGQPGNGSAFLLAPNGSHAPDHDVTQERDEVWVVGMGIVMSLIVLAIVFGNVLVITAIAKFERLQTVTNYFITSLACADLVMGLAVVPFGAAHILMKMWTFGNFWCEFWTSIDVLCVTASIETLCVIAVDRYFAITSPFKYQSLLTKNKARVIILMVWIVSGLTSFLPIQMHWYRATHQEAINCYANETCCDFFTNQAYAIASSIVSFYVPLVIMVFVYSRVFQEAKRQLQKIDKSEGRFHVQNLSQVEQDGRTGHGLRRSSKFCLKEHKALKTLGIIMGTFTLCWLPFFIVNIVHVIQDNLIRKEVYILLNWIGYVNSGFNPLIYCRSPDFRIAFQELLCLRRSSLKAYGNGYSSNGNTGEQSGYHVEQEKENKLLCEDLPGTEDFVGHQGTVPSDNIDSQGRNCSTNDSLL
T4 sequence (P41595 whole entry): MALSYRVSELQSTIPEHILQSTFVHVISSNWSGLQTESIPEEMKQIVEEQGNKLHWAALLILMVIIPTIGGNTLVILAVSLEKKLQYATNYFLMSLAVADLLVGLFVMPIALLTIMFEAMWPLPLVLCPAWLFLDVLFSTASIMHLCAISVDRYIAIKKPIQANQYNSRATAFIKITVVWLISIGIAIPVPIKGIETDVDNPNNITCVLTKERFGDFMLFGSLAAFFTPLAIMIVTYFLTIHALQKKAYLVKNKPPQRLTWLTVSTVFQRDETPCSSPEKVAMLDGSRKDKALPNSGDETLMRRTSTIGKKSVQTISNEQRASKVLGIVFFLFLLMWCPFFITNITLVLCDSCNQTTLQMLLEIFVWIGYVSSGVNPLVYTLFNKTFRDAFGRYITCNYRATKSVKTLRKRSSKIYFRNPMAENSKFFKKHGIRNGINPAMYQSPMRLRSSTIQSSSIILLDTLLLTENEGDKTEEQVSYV
T5 sequence (P46098 24-478): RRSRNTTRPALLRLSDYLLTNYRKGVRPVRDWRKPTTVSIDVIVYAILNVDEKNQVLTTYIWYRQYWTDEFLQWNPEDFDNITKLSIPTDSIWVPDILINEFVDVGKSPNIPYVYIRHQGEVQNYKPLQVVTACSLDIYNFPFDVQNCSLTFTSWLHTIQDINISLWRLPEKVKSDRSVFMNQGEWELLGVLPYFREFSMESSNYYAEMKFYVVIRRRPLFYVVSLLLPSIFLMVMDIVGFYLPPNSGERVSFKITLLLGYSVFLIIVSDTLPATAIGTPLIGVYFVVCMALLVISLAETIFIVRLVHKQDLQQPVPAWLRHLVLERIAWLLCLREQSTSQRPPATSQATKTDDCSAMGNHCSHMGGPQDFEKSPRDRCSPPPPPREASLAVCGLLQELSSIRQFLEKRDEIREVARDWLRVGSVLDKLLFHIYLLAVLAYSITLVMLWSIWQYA
T30 sequence (Q14432 whole entry): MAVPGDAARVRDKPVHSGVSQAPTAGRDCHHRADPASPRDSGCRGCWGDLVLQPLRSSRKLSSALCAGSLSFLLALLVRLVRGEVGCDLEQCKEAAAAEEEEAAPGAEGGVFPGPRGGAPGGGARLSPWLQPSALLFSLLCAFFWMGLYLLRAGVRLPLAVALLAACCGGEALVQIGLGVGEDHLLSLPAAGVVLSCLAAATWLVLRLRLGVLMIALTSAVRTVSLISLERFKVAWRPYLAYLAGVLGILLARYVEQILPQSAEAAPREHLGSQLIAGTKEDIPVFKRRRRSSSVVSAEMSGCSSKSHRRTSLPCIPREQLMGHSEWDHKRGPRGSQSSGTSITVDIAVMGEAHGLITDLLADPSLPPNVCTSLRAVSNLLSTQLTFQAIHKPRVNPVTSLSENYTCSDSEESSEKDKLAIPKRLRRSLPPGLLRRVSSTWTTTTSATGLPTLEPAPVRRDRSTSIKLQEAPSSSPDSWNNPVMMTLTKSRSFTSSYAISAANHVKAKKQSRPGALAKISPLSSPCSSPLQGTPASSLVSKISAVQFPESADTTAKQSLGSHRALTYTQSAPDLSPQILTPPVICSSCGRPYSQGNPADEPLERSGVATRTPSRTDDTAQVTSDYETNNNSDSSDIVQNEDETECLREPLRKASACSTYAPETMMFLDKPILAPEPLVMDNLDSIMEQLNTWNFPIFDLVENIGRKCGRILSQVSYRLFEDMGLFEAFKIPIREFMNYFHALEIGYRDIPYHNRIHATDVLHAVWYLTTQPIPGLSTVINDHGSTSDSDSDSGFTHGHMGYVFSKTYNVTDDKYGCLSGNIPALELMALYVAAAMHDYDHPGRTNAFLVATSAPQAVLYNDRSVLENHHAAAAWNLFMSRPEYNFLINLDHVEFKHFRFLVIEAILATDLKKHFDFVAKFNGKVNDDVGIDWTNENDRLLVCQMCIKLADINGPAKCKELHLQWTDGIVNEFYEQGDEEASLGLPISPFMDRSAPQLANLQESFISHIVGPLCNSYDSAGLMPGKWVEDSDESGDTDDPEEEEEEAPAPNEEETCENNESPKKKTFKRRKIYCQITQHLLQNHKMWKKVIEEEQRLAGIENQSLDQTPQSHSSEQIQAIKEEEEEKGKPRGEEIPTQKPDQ

C[C@H]1COc2c(N3CC[C@@H](Nc4ncccn4)C3)c(F)cc3c(=O)c(C(=O)O)cn1c23 [Compound 46, (S)-9-Fluoro-3-methyl-7-oxo-10-((R)-3-(pyrimidin-2-ylamino)pyrrolidin-1-yl)-2,3-dihydro-7H-[1,4]oxazino[2,3,4-ij]quinoline-6-carboxylic acid]
% Inhibition (5-HT transporter (h)): -16.9663% | % Inhibition (5-HT1A (h)): -3.77% | % Inhibition (5-HT1B): -16.7063% | % Inhibition (5-HT2B (h)): 5.374% | % Inhibition (5-HT3 (h)): -4.708% | % Inhibition (A2A (h)): 53.628% and 53.6% | % Inhibition (BZD (central)): -44.8289% | % Inhibition (CB1 (h)): 1.857% | % Inhibition (CCK1 (CCKA) (h)): -2.038% | % Inhibition [1]: 6.049% | inhibition at 10 µM (D1 (h)): -15.4% | inhibition at 10 µM (D2S (h)): -7.81% | % Inhibition (ETA (h)): -5.236% | % Inhibition (GR (h)): 3.456% | % Inhibition (H1 (h)): 5.564% | % Inhibition (H2 (h)): -40.1709% | % Inhibition (KV channel): -4.644% | % Inhibition (M1 (h)): 3.129% | % Inhibition (M2 (h)): 1.066% | % Inhibition (M3 (h)): 2.273% | % Inhibition (MAO-A): -9.13% | inhibition at 10 µM [2]: -41.8% | % Inhibition (NMDA): 12.6124% | % Inhibition (Na+ channel (site 2)): 23.6539% | % Inhibition [3]: -0.2461% | % Inhibition (V1a (h)): -12.5662% | inhibition at 10 µM (alpha 1A (h)): 11.5% | inhibition at 10 µM (alpha 2A (h)): 4.48% | % Inhibition (beta 1 (h)): 1.921% | % Inhibition (beta 2 (h)): 11.3086% | % Inhibition (mu (MOP) (h)): 6.535% | % Inhibition [4]: -6.471% | % Inhibition (COX1(h)): 30.3185% and 30.3% | % Inhibition (Lck kinase (h)): -2.891% | % Inhibition (PDE3A (h)): 7.502% | inhibition at 10 µM (PDE4D2 (h)): 14.8% | % Inhibition (acetylcholinesterase (h)): 32.9861% and 33.0% | AUC of growth curve ([5]; 0.25 MIC + R (reserpine)): 3.991 and 3.857 and 2.348 | AUC of growth curve ([5]; 0.25 MIC): 5.243 and 5.279 and 3.696 | AUC of growth curve ([5]; 0.5 MIC + R (reserpine)): 3.930 and 3.864 and 2.013 | AUC of growth curve ([5]; 0.5 MIC): 4.798 and 3.349 and 3.713 | efflux liability in reserpine assay ([5]; 0.5x MIC with vs without reserpine): minimal shift
